Reference: PubChem BioAssay (NCI)
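Abbreviation: GI50, concentration required for 50% inhibition of growth. TGI is the concentration that stops growth completely.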

Tests used:
Test in all cases: inhibition of tumour cell growth, NCI panel, 384-well format
[1] = test system: 786-0 renal
[2] = test system: A498 renal
[3] = test system: A549 NSCLC
[4] = test system: ACHN renal
[5] = test system: BT-549 breast
[6] = test system: CAKI-1 renal
[7] = test system: CCRF-CEM leukemia
[8] = test system: COLO 205 colon
[9] = test system: DU-145 prostate
[10] = test system: EKVX NSCLC
[11] = test system: HCC-2998 colon
[12] = test system: HCT-116 colon
[13] = test system: HCT-15 colon
[14] = test system: HL-60(TB) leukemia
[15] = test system: HOP-62 NSCLC
[16] = test system: HOP-92 NSCLC
[17] = test system: HS 578T breast
[18] = test system: HT29 colon
[19] = test system: IGROV1 ovarian
[20] = test system: K-562 leukemia
[21] = test system: KM12 colon
[22] = test system: LOX IMVI melanoma
[23] = test system: M14 melanoma
[24] = test system: MALME-3M melanoma
[25] = test system: MCF7 breast
[26] = test system: MDA-MB-231 breast
[27] = test system: MDA-MB-435 melanoma
[28] = test system: MDA-MB-468 breast
[29] = test system: MOLT-4 leukemia
[30] = test system: NCI-H226 lung
[31] = test system: NCI-H23 lung
[32] = test system: NCI-H322M lung
[33] = test system: NCI-H460 NSCLC
[34] = test system: NCI-H522 lung
[35] = test system: NCI/ADR-RES ovarian
[36] = test system: OVCAR-3 ovarian
[37] = test system: OVCAR-4 ovarian
[38] = test system: OVCAR-5 ovarian
[39] = test system: OVCAR-8 ovarian
[40] = test system: PC-3 prostate
[41] = test system: RPMI-8226 leukemia
[42] = test system: RXF 393 renal
[43] = test system: SF-268 CNS
[44] = test system: SF-295 CNS
[45] = test system: SF-539 CNS
[46] = test system: SK-MEL-28 melanoma
[47] = test system: SK-MEL-5 melanoma
[48] = test system: SK-OV-3 ovarian
[49] = test system: SN12C renal
[50] = test system: SNB-19 CNS
[51] = test system: SNB-75 CNS
[52] = test system: SW-620 colon
[53] = test system: T-47D breast
[54] = test system: TK-10 renal
[55] = test system: U251 glioblastoma
[56] = test system: UACC-257 melanoma
[57] = test system: UACC-62 melanoma
[58] = test system: UO-31 renal
[59] = test system: SR leukemia

Compound: O=C(Nc1ccc(Oc2ccc(F)cc2)cc1)[C@@H]1C[C@@H](Cc2ccc(F)cc2)CN1C(=O)Cn1ccnn1
- GI50 [1]: 4.65 µM
- TGI [1]: 16.3 µM
- GI50 [2]: 5.24 µM
- TGI [2]: 16.5 µM
- GI50 [3]: 4.06 µM
- TGI [3]: 19.2 µM
- GI50 [4]: 4.88 µM
- TGI [4]: 17.4 µM
- GI50 [5]: 7.1 µM
- TGI [5]: 18.7 µM
- GI50 [6]: 12.1 µM
- TGI [6]: 25.1 µM
- GI50 [7]: 2.64 µM
- TGI [7]: 5.92 µM
- GI50 [8]: 8.04 µM
- TGI [8]: 21.4 µM
- GI50 [9]: 10.8 µM
- TGI [9]: 26.7 µM
- GI50 [10]: 11 µM
- TGI [10]: 24.9 µM
- GI50 [11]: 4.57 µM
- TGI [11]: 14.6 µM
- GI50 [12]: 5.34 µM
- TGI [12]: 16.7 µM
- GI50 [13]: 6.73 µM
- TGI [13]: 21.9 µM
- GI50 [14]: 2.44 µM
- TGI [14]: 4.34 µM
- GI50 [15]: 6.4 µM
- TGI [15]: 18.2 µM
- GI50 [16]: 3.72 µM
- TGI [16]: 12.1 µM
- GI50 [17]: 7.78 µM
- TGI [17]: 19.6 µM
- GI50 [18]: 3.46 µM
- TGI [18]: 11.7 µM
- GI50 [19]: 7.92 µM
- TGI [19]: 20.8 µM
- GI50 [20]: 4.7 µM
- TGI [20]: 14.9 µM
- GI50 [21]: 8.19 µM
- TGI [21]: 20.8 µM
- GI50 [22]: 5.29 µM
- TGI [22]: 17.1 µM
- GI50 [23]: 7.23 µM
- TGI [23]: 19.8 µM
- GI50 [24]: 6.92 µM
- TGI [24]: 19.2 µM
- GI50 [25]: 4.1 µM
- TGI [25]: 14.5 µM
- GI50 [26]: 13.5 µM
- TGI [26]: 27.1 µM
- GI50 [27]: 13.3 µM
- TGI [27]: 26.3 µM
- GI50 [28]: 6.95 µM
- TGI [28]: 18.8 µM
- GI50 [29]: 2.02 µM
- TGI [29]: 3.78 µM
- GI50 [30]: 9.85 µM
- TGI [30]: 21.7 µM
- GI50 [31]: 15.7 µM
- TGI [31]: 29.9 µM
- GI50 [32]: 14.8 µM
- TGI [32]: 30.1 µM
- GI50 [33]: 5.39 µM
- TGI [33]: 16.8 µM
- GI50 [34]: 6.56 µM
- TGI [34]: 18.8 µM
- GI50 [35]: 16.1 µM
- TGI [35]: 36.7 µM
- GI50 [36]: 7.5 µM
- TGI [36]: 19.5 µM
- GI50 [37]: 11.9 µM
- TGI [37]: 26.4 µM
- GI50 [38]: 14.7 µM
- TGI [38]: 28.3 µM
- GI50 [39]: 11.1 µM
- TGI [39]: 23.4 µM
- GI50 [40]: 4.69 µM
- TGI [40]: 15 µM
- GI50 [41]: 3.81 µM
- TGI [41]: 9.88 µM
- GI50 [42]: 3.77 µM
- TGI [42]: 11.4 µM
- GI50 [43]: 2.52 µM
- TGI [43]: 7.96 µM
- GI50 [44]: 7.16 µM
- TGI [44]: 19.5 µM
- GI50 [45]: 10.9 µM
- TGI [45]: 23 µM
- GI50 [46]: 15.8 µM
- TGI [46]: 29.4 µM
- GI50 [47]: 8.64 µM
- TGI [47]: 21 µM
- GI50 [48]: 12.7 µM
- TGI [48]: 28.1 µM
- GI50 [49]: 12.9 µM
- TGI [49]: 25.8 µM
- GI50 [50]: 11.6 µM
- TGI [50]: 25.9 µM
- GI50 [51]: 7.44 µM
- TGI [51]: 20.7 µM
- GI50 [52]: 16.1 µM
- TGI [52]: 29.8 µM
- GI50 [53]: 3.64 µM
- TGI [53]: 10 µM
- GI50 [54]: 11.1 µM
- TGI [54]: 24.2 µM
- GI50 [55]: 4.94 µM
- TGI [55]: 16.3 µM
- GI50 [56]: 11.6 µM
- TGI [56]: 23.9 µM
- GI50 [57]: 13.2 µM
- TGI [57]: 26.1 µM
- GI50 [58]: 10.8 µM
- TGI [58]: 22.9 µM

Compound: CCOCC1(COCC)CCC(c2[nH]ncc2CN(C)CCNC)CC1
- GI50 [1]: 10.4 µM
- TGI [1]: > 100 µM
- GI50 [2]: 5.94 µM
- TGI [2]: > 100 µM
- GI50 [3]: 18.1 µM
- TGI [3]: > 100 µM
- GI50 [4]: 2.03 µM
- TGI [4]: > 100 µM
- GI50 [5]: 32.7 µM
- TGI [5]: > 100 µM
- GI50 [6]: 3.69 µM
- TGI [6]: > 100 µM
- GI50 [7]: 53.3 µM
- TGI [7]: > 100 µM
- GI50 [8]: 20.5 µM
- TGI [8]: > 100 µM
- GI50 [9]: > 100 µM
- TGI [9]: > 100 µM
- GI50 [10]: > 100 µM
- TGI [10]: > 100 µM
- GI50 [11]: 16.3 µM
- TGI [11]: 38.3 µM
- GI50 [13]: 18.6 µM
- TGI [13]: > 100 µM
- GI50 [14]: 0.123 µM
- TGI [14]: 2.68 µM
- GI50 [15]: 71 µM
- TGI [15]: > 100 µM
- GI50 [16]: 35.2 µM
- TGI [16]: > 100 µM
- GI50 [17]: > 100 µM
- TGI [17]: > 100 µM
- GI50 [18]: 10.7 µM
- TGI [18]: 35.8 µM
- GI50 [19]: 2.77 µM
- TGI [19]: > 100 µM
- GI50 [20]: 4.11 µM
- TGI [20]: > 100 µM
- GI50 [21]: > 100 µM
- TGI [21]: > 100 µM
- GI50 [22]: 29.6 µM
- TGI [22]: > 100 µM
- GI50 [23]: 17.6 µM
- TGI [23]: 44.7 µM
- GI50 [24]: 8.61 µM
- TGI [24]: 36.3 µM
- GI50 [25]: 29.9 µM
- TGI [25]: > 100 µM
- GI50 [26]: 42.5 µM
- TGI [26]: > 100 µM
- GI50 [27]: 58.7 µM
- TGI [27]: > 100 µM
- GI50 [28]: 1.81 µM
- TGI [28]: 35.6 µM
- GI50 [29]: 20 µM
- TGI [29]: > 100 µM
- GI50 [30]: > 100 µM
- TGI [30]: > 100 µM
- GI50 [31]: > 100 µM
- TGI [31]: > 100 µM
- GI50 [32]: > 100 µM
- TGI [32]: > 100 µM
- GI50 [33]: 8.56 µM
- TGI [33]: > 100 µM
- GI50 [34]: 96.8 µM
- TGI [34]: > 100 µM
- GI50 [35]: > 100 µM
- TGI [35]: > 100 µM
- GI50 [36]: 1.75 µM
- TGI [36]: > 100 µM
- GI50 [37]: > 100 µM
- TGI [37]: > 100 µM
- GI50 [38]: 28.5 µM
- TGI [38]: > 100 µM
- GI50 [39]: > 100 µM
- TGI [39]: > 100 µM
- GI50 [40]: > 100 µM
- TGI [40]: > 100 µM
- GI50 [41]: 2.52 µM
- TGI [41]: 57.4 µM
- GI50 [42]: > 100 µM
- TGI [42]: > 100 µM
- GI50 [43]: > 100 µM
- TGI [43]: > 100 µM
- GI50 [44]: 6.65 µM
- TGI [44]: > 100 µM
- GI50 [45]: 90.4 µM
- TGI [45]: > 100 µM
- GI50 [46]: 11.3 µM
- TGI [46]: 29.3 µM
- GI50 [47]: 11.5 µM
- TGI [47]: 34.5 µM
- GI50 [48]: 47.1 µM
- TGI [48]: > 100 µM
- GI50 [49]: 64.8 µM
- TGI [49]: > 100 µM
- GI50 [50]: > 100 µM
- TGI [50]: > 100 µM
- GI50 [51]: > 100 µM
- TGI [51]: > 100 µM
- GI50 [59]: 0.386 µM
- TGI [59]: 9.85 µM
- GI50 [52]: > 100 µM
- TGI [52]: > 100 µM
- GI50 [53]: 27.3 µM
- TGI [53]: > 100 µM
- GI50 [54]: 43.4 µM
- TGI [54]: > 100 µM
- GI50 [56]: 14.8 µM
- TGI [56]: 30.2 µM
- GI50 [57]: 12.6 µM
- TGI [57]: 33.3 µM
- GI50 [58]: > 100 µM
- TGI [58]: > 100 µM
